{"source": "patent US8673851B2", "about": "“Synapse-specific proteins in glomeruli” (priority 2005, dated 2014)", "key": {"[1]": {"test_system": "podocytes", "assay_type": "cell-based", "conditions": "for Calcium content (Fluo4) / Intra-vesicle pH (Lysosensor green) / Membrane potential (RH-414 accumulation and discharge): during stimulated exocytosis"}, "[2]": {"test_system": "primary mouse podocytes", "test": "Phalloidin staining of the actin cytoskeleton", "assay_type": "cell-based", "conditions": "24 h, 50 mM norketamine hydrochloride", "experimental": "A Phalloidin staining of primary mouse podocytes after 24 h medium incubation. The actin cytoskeleton is intact. Rhodamine-phalloidin, 100×)\nB Phalloidin staining of primary mouse podocytes after 24 h 50 mM norketamine hydrochloride incubation. […] (Rhodamine-phalloidin, 100×)\nBy immunohistochemistry, we have observed a variation of positivity, either increased or decreased, for other synaptic proteins, such as synapsin 1 (antibody from Abeam), and the ionotropic glutamate receptor NMDA-1 in a variety of human glomerulonephritis (FIG. 12)."}, "[3]": {"test_system": "podocytes", "test": "[3H]-L-glutamate uptake", "assay_type": "cell-based, mouse", "experimental": "Podocytes were seeded at a density of 15,000 cells/well in 48-well plates, Two days later the culture medium was removed, the adherent washed two times with 0.5 mL/well of assay buffer (10 mM Tris-acetate, 128 mM NaCl, 10 mM D-glucose, 5 mM KCl, 1.5 mM NaH2PO4, 1 mM MgSO4, 1 mM CaCl2, pH 7.4) and then incubated for 15 min at 35° C. in assay buffer (0.3 mL/well) containing 100 nM [3H]-L-glutamate (Amersham, specific activity 47.0 Ci/mmol) with or without different concentrations of cold L-glutamate (from 1 to 1000 μM). Non-specific uptake was determined in parallel samples incubated in a Na+-free buffer (NaCl replaced by cholineCl). […]\nIn preliminary experiments it was established that the uptake of [3H]-Lglutamate was linear at least up to 15 min (not shown). Cells were then added with 0.3 mL/well of SDS and, after 2 hours on shaking plate, the well content was counted in 4 mL of Ultima Gold MV (Packard Bioscience, Groningen, the Netherlands) in an LKB 1214 Rackbeta liquid scintillation counter with a counting efficiency of about 60%.\nKm and Vmax of L-glutamate uptake were determined by fitting the inhibition curve using the “homologous competitive binding curve” equation built into GrapPad Prism version 4.00 for Windows (GraphPad Software, San Diego Calif. USA). […]"}, "[4]": {"test_system": "cultured mouse podocytes", "test": "α-latrotoxin-stimulated glutamate release (enzymatic GDH/NADH assay)", "assay_type": "cell-based", "experimental": "α-Latrotoxin stimulated glutamate release was detected by an enzymatic assay based on the following reaction that occurs in presence of glutamate dehydrogenase (GDH): Glutamate−+NAD++H20 ketoglutarate2−+NADH+[…]H+.\nBriefly, to this purpose, the same numbers of podocytes obtained from normal mouse glomeruli were plated and grown to semiconfluence. Before measurements, cells were washed and re-suspended for 1 hour at 37° C. in DME incubation buffer (NaCl 109.5 mM, KCl 5.3 mM, glucose 5.5 mM with MgCl2 1 mM, Hepes 20 mM). The medium was further supplemented with GDH (Sigma 60 U/ml) and NAD+ (Sigma 1 mM), and incubated for 5 min. Then, α-latrotoxin was added at subnanomolar (0.5 nM) or nanomolar (2.5 nM) concentration and spectrophotometric increase of optical density (O.D.) due to increase of NADH was monitored at 340 nm. 200 nM Bafilomycin A1 (Sigma), a V-ATPase inhibitor that dissipates the electrochemical proton gradient necessary for glutamate uptake and storage into vescicles43, was added for 30 min at 37° C. to control cell plates before α-latrotoxin stimulation."}, "[5]": {"test_system": "cultured podocytes", "test": "Rab3A and glutamate staining of cultured podocytes before and after α-latrotoxin stimulus", "assay_type": "cell-based, mouse", "conditions": "after nanomolar α-latrotoxin treatment", "source_text": "Panel b)-e): Rab3A (b, d) and glutamate (c, e) staining of cultured podocytes before (b, c) and after (d, e) nanomolar α-latrotoxin stimulus. Disappearance of most labeling from the processes of podocytes is evident after stimulation (indirect immunofluorescence, 450×)."}, "[6]": {"test_system": "primary podocytes", "test": "Synaptic vesicle recycling with styryl dye FM1-43", "assay_type": "cell-based", "source_text": "The recycling of synaptic vesicles in nerve terminals is a complex multistep process, whose investigation has been made feasible by the use of styryl dyes. These molecules, that reversibly insert into the surface of lipid membranes, have no fluorescent properties in aqueous solution, but become intensely fluorescent upon membrane binding, allowing a labelling of recycling synaptic vesicles that is easily detectable by fluorescence microscopy."}, "[7]": {"test_system": "cell membranes", "conditions": "higher concentrations (>10 nM); cited from earlier work"}, "[8]": {"test_system": "primary podocyte", "test": "BDNF incubation, process formation (bright-field)", "assay_type": "cell-based", "conditions": "250 ng/ml, 20 hour incubation", "experimental": "FIG. 18 • A) Bright-field image (200×) showing the in vivo appearance of a primary podocyte before BDNF treatment. • B) The same field is taken after 20 h of BDNF incubation. The cell has produced a number of processes starting from its body.\nWe have also observed that podocytes are sensitive to 250 ng/ml BDNF (Brain Derived Neurotrophic Factor) (Sigma): after 20 hour incubation with BDNF, in fact, the number of processes extending from the podocyte cell body are increased (FIG. 18)."}}, "note": "Where a name gives a salt, the structure may show the parent alone."}
{"molecule": "tetanus toxin", "values": [{"measurement": "Block of exocytotic events", "setting": "[1]", "result": "can be blocked"}]}
{"molecule": "NC1(c2ccccc2Cl)CCCCC1=O", "note": "(centres unmarked) [norketamine hydrochloride]", "values": [{"measurement": "Actin cytoskeleton (rhodamine-phalloidin)", "setting": "[2]", "result": "profound alteration of the actin cytoskeleton"}]}
{"molecule": "N[C@@H](CCC(=O)O)C(=O)O", "note": "[L-glutamate]", "values": [{"measurement": "Km", "setting": "[3]; Na+-dependent uptake, 100 nM [3H]-L-glutamate, 15 min at 35° C.", "result": 83, "unit": "µM"}, {"measurement": "Vmax of L-glutamate uptake", "setting": "[3]; estimated, 15,000 cells/well seeded", "result": "about 2 pmol/min/well"}]}
{"molecule": "[Cl-].[K+]", "note": "[KCl]", "values": [{"measurement": "Induction of stimulated exocytosis", "setting": "[1]; 60 mM", "result": "can be induced"}, {"measurement": "Calcium content (Fluo4)", "setting": "[1]", "result": "rapid variation in calcium content"}, {"measurement": "Intra-vesicle pH (Lysosensor green)", "setting": "[1]", "result": "variation of intra-vesicle pH"}, {"measurement": "Membrane potential (RH-414 accumulation and discharge)", "setting": "[1]", "result": "rapid variation of the membrane potential"}]}
{"molecule": "CO/C1=C\\C(C)=C\\[C@@H](C)[C@@H](O)[C@@H](C)C/C(C)=C/C=C/[C@H](OC)[C@@H]([C@@H](C)[C@@H](O)[C@H](C)[C@@]2(O)C[C@@H](O)[C@H](C)[C@@H](C(C)C)O2)OC1=O", "note": "[bafilomycin, Bafilomycin A1]", "values": [{"measurement": "Glutamate release after α-latrotoxin", "setting": "[4]; bafilomycin added 30 min before latrotoxin (0.5 nM or 2.5 nM α-latrotoxin), 200 nM Bafilomycin A1", "result": "Absence of glutamate release"}]}
{"molecule": "α-latrotoxin", "values": [{"measurement": "Glutamate secretion (generation of NADH, optical density at 340 nm)", "setting": "[4]; 0.5 nM α-latrotoxin", "result": "continuous exocytosis"}, {"measurement": "Glutamate secretion (generation of NADH, optical density at 340 nm)", "setting": "[4]; 2.5 nM α-latrotoxin", "result": "burst of neurotransmitter release, followed by steady state"}, {"measurement": "Glutamate labeling of cell processes by immunohistochemistry", "setting": "[5]", "result": "disappearance of most glutamate from cell processes"}, {"measurement": "Rab3A distribution by immunohistochemistry", "setting": "[5]", "result": "redistribution of Rab3A"}, {"measurement": "Calcium content (Fluo4)", "setting": "[1]", "result": "rapid variation in calcium content"}, {"measurement": "Intra-vesicle pH (Lysosensor green)", "setting": "[1]", "result": "variation of intra-vesicle pH"}, {"measurement": "Membrane potential (RH-414 accumulation and discharge)", "setting": "[1]", "result": "rapid variation of the membrane potential"}, {"measurement": "FM1-43 dye uptake", "setting": "[6]; a few seconds after a first α-latrotoxin stimulus", "result": "accumulate the styryl dye FM1-43"}, {"measurement": "FM1-43 dye release", "setting": "[6]; after a second α-latrotoxin stimulation", "result": "almost completely discharge the dye"}, {"measurement": "Damage to cell membranes", "setting": "[7]", "result": "highly damaging for cell membranes"}]}
{"molecule": "BDNF: Brain Derived Neurotrophic Factor (Sigma) (protein, UniProt P23560 19-247, looked up) Neurotrophic factor BDNF …: APMKEANIRGQGGLAYPGVRTHGTLESVNGPKAGSRGLTSLADTFEHVIEELLDEDQKVRPNEENNKDADLYTSRVMLSSQVPLEPPLLFLLEEYKNYLDAANMSMRVRRHSDPARRGELSVCDSISEWVTAADKKTAVDMSGGTVTVLEKVPVSKGQLKQYFYETKCNPMGYTKEGCRGIDKRHWNSQCRTTQSYVRALTMDSKKRIGWRFIRIDTSCVCTLTIKRGR", "values": [{"measurement": "Number of processes extending from the podocyte cell body", "setting": "[8]", "result": "increased"}]}
